Source: patent publication US20140135310A1, “SULPHONAMIDE DERIVATIVES OF ALICYCLIC AMINES FOR THE TREATMENT OF CENTRAL NERVOUS SYSTEM DISEASES” (Adamed Sp. z o.o., priority 2011, published 2014)

Columns and labels:
[1] = target: dopaminergic receptors D2 (Homo sapiens, UniProt P14416); assay: Radioligand binding assay, dopaminergic D2 receptors; conditions: for inhibition at 1 µM / D2 [%]: binding assay, test compound 1×10^−6 M; for Ki: read-out: Inhibition constants Ki for D2 receptors, D2
Outline: (§1)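 Scintillation read-out. Specific = total − nonspecific (excess cold ligand). Data as % of control specific binding / % inhibition; IC50 by Hill fit; Ki = IC50/(1+L/KD), KD from Scatchard plot.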

[2] = target: dopaminergic receptors D3 (Homo sapiens, UniProt P35462); assay: Radioligand binding assay, dopaminergic D3 receptors; conditions: test compound 1×10^−6 M
Outline: as §1

receptors D4.4 = target: T1, receptors D4.4 (Homo sapiens, UniProt P21917); assay: Radioligand binding assay, dopaminergic D4 (D4.4) receptors; conditions: test compound 1×10^−6 M
T1 sequence (P21917 1-419): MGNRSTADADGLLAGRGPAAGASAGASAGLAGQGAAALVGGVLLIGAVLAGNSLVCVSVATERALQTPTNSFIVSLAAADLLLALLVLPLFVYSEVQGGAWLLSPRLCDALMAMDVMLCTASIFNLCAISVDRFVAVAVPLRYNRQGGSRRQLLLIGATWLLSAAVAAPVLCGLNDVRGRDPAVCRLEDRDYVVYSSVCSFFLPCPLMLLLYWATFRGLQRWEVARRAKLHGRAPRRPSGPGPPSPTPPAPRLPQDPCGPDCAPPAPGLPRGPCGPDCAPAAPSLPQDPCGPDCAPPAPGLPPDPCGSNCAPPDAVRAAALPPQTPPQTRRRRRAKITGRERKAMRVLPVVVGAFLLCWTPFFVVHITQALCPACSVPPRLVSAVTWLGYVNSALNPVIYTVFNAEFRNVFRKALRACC
Source text: (§2) The specific ligand binding to the receptors is defined as the difference between the total binding and the non-specific binding determined in the presence of the excess of unlabelled ligand.
(§3) The results are expressed as a percent of control specific binding ((measured specific binding/control specific binding)×100) and as a percent inhibition of control specific binding (100−((measured specific binding/control specific binding)×100)) obtained in the presence of the test compounds. The specific ligand binding to the receptors is defined as the difference between the total binding and the nonspecific binding determined in the presence of an excess of unlabelled ligand. Scintillation counting was the method of detection of ligand binding. The IC50 values (concentration causing a half-maximal inhibition of control specific binding) were determined by non-linear regression analysis of the competition curves generated with mean replicate values using Hill equation curve fitting (Y=D+[(A−D)/(1+(C/C50)nH)], where Y=specific binding, D=minimum specific binding, A=maximum specific binding, C=compound concentration, C50=IC50, and nH=slope factor). This analysis was performed using a software developed at Cerep (Hill software) and validated by comparison with data generated by the commercial software SigmaPlot® 4.0 for Windows® (© 1997 by SPSS Inc.). The inhibition constants (Ki) were calculated using the Cheng Prusoff equation (Ki=IC50/(1+(L/KD)), where L=concentration of radioligand in the assay, and KD=affinity of the radioligand for the receptor). A scatchard plot was used to determine the Kd.
Experimental conditions for tests are given in Table 1, the results of tests for representative compounds are given in Tables 2a and 2b (receptors D2 and D3) and in Table 3 (receptors D4).

5-HT2C receptor = target: T2, 5-HT2C receptor (Homo sapiens, UniProt P28335); assay: Radioligand binding assay, serotoninergic 5-HT2C receptors; conditions: test compound 1×10^−6 M
T2 construct: expressed in transfected cells; host or cells: HEK-293 cells
T2 sequence (P28335 33-458): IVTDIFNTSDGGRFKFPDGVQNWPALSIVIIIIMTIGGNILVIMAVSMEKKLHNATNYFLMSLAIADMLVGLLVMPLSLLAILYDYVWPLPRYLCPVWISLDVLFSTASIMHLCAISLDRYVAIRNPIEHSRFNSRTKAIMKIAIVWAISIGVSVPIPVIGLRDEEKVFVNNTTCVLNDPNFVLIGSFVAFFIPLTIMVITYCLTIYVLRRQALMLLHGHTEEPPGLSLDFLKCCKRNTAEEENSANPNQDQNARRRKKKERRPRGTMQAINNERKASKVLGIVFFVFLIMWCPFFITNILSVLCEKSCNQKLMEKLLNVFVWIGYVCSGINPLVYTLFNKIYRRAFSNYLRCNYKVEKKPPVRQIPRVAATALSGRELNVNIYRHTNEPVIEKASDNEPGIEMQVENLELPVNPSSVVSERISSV
Source text: as §2, §3
Experimental conditions for tests are given in Table 4, and results of tests for representative compounds of the invention are given in Table 5a and 5b (receptors 5-HT1A, 5-HT2A, 5-HT6 and 5-HT7) and in Table 6 (receptors 5-HT2C).

5-HT6 receptor = target: T3, 5-HT6 receptor (Homo sapiens, UniProt P50406); assay: Radioligand binding assay, serotoninergic 5-HT6 receptors; conditions: for inhibition at 1 µM / 5-HT6 [%]: binding assay result in %, Table 5a; for Ki: read-out: Inhibition constants Ki, 5-HT6
T3 construct: purchased PerkinElmer
Outline: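 Values are Ki from Cheng–Prusoff, taking IC50 from Hill nonlinear regression of competition curves and KD from a Scatchard plot. Specific binding was total minus binding with excess unlabelled ligand. Radioligand displacement was detected by scintillation counting, and data were also reported as percent of control specific binding.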

α2C adrenergic receptors = target: T4, α2C adrenergic receptors (Homo sapiens, UniProt P18825); assay: Radioligand binding assay, adrenergic α2C receptors; conditions: test compound 1×10^−6 M
T4 construct: expressed in transfected cells; host or cells: CHO cells
T4 sequence (P18825 1-462): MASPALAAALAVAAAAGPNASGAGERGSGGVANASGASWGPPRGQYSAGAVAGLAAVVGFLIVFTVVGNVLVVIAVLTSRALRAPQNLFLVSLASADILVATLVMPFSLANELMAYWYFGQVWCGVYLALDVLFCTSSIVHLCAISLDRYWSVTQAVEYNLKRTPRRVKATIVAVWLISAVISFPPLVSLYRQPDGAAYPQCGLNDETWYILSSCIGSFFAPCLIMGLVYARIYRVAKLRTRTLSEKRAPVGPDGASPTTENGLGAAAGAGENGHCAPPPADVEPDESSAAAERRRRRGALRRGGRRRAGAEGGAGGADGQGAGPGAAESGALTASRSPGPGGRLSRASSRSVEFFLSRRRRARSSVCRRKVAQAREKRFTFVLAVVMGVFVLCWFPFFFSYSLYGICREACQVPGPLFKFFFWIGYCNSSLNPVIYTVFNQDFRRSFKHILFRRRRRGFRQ
Source text: as §2, §3
Experimental conditions for tests are given in Table 7, and results of tests for representative compounds are given in Tables 8 (α1 receptors) and in Tables 9 (α2C receptors).

[3] = target: T5, H1 histaminergic receptors (Homo sapiens, UniProt P35367); assay: Radioligand binding assay, histaminergic H1 receptors; conditions: human recombinant (HEK-293 cells), [3H]pyrilamine 1 nM
T5 construct: expressed in transfected cells; host or cells: HEK-293 cells
Source text: as §2, §3
Experimental conditions for tests are given in Table 14, and results of tests for representative compounds are presented in Table 15.

5-HT2A receptor = target: T6, 5-HT2A receptor (Homo sapiens, UniProt P28223); assay: Radioligand binding assay, serotoninergic 5-HT2A receptors; conditions: for Ki: read-out: Inhibition constants Ki, 5-HT2A
T6 construct: purchased PerkinElmer
Outline: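 Competition curves from scintillation-counted specific binding (total minus binding with excess unlabelled ligand) were Hill-fitted to give IC50, converted to Ki via Cheng-Prusoff using Scatchard-derived Kd.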

[4] = binding assay result in %, Table 5a

T3 sequence (P50406 whole entry): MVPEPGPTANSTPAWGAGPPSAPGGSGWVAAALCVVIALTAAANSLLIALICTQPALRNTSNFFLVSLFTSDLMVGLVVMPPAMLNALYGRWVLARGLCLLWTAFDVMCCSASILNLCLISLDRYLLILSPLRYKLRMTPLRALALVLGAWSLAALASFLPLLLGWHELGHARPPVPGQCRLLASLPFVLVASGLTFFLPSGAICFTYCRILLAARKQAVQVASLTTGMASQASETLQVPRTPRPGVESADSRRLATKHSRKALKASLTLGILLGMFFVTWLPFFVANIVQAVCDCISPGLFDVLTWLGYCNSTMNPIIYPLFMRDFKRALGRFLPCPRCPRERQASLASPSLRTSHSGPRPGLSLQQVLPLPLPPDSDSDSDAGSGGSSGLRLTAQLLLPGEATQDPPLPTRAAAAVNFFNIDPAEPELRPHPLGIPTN
T5 sequence (P35367 whole entry): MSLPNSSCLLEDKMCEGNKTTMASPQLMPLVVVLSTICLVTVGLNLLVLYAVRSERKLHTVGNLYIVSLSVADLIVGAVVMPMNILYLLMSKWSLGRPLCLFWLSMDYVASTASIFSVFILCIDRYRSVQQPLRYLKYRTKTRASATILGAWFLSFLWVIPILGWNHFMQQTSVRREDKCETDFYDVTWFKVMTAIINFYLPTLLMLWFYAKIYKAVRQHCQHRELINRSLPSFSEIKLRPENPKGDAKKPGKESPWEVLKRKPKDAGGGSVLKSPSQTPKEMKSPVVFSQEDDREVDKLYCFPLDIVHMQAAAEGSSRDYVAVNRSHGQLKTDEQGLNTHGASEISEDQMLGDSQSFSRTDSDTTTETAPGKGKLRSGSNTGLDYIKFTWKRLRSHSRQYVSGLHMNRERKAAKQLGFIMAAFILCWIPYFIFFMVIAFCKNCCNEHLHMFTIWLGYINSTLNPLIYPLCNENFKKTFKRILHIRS
Chain of dopaminergic receptors D2 (P14416 whole entry): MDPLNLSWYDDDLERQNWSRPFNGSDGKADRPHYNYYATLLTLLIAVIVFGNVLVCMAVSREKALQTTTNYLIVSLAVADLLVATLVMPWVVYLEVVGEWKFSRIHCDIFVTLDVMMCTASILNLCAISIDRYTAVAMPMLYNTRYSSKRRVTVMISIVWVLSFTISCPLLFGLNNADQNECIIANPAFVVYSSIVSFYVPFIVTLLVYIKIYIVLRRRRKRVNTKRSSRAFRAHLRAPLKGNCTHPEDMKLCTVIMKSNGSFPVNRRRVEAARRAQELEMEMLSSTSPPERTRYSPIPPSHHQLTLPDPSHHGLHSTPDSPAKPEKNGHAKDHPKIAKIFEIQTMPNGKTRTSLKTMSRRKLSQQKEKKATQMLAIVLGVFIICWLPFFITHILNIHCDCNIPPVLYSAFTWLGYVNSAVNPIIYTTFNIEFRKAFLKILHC
T6 sequence (P28223 whole entry): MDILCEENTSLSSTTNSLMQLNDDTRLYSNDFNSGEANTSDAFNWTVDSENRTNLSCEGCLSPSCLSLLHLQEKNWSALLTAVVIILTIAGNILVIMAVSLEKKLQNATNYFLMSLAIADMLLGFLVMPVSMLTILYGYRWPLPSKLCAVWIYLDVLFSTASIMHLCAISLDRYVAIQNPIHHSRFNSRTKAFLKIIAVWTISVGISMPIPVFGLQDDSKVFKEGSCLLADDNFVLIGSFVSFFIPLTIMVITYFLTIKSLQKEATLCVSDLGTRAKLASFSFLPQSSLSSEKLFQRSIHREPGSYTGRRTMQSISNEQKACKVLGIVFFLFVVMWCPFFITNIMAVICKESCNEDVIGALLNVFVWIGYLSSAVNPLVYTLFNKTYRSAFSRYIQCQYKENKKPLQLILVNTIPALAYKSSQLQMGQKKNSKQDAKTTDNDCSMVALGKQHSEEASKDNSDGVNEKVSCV
Chain of dopaminergic receptors D3 (P35462 whole entry): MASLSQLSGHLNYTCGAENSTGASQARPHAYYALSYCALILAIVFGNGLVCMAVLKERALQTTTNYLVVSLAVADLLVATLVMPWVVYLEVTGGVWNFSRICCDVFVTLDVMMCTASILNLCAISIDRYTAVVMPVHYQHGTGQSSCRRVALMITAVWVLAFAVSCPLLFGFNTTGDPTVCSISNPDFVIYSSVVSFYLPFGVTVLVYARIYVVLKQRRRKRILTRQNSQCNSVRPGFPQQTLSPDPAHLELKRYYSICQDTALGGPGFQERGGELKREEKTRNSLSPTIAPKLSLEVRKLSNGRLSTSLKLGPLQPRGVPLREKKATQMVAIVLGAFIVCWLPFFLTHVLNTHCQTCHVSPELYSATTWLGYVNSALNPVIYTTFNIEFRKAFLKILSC

Row | Molecule | inhibition at 1 µM [1] [%] | inhibition at 1 µM [2] [%] | inhibition at 1 µM (receptors D4.4) [%] | inhibition at 1 µM (5-HT2C receptor) [%] | inhibition at 1 µM (5-HT6 receptor) [%] | inhibition at 1 µM (α2C adrenergic receptors) [%] | inhibition at 1 µM [3] [%] | D2 [%] [1] [%] | D3 [%] [2] [%] | D4.4 [%] (receptors D4.4) | 5-HT2C [%] (5-HT2C receptor) | 5-HT6 [%] (5-HT6 receptor) | α2C [%] (α2C adrenergic receptors) | H1 [%] [3] [%] | Ki [1] [nM] | inhibition at 1 µM (5-HT2A receptor; [4]) [%] | Ki (5-HT2A receptor) [nM] | Ki (5-HT6 receptor) [nM] | 5-HT2A [%] (5-HT2A receptor; [4])
1 | COc1ccc2cc(S(=O)(=O)NC3CCN(CCCc4noc5cc(F)ccc45)C3)ccc2c1 (stereo not shown) [Compound 227, N-[1-[3-(6-Fluoro-1,2-benzoxazol-3-yl)propyl]pyrrolidin-3-yl]-6-methoxy-naphthalene-2-sulphonamide] | 97 | 96 | 88 | 82 | 94 | 90 | 69 | – | – | – | – | – | – | – | – | – | – | – | –
2 | N-[1-[3-(6-Fluoro-1,2-benzoxazol-3-yl)propyl]pyrrolidin-3-yl]-1-methyl-imidazole-4-sulphonamide [Compound 217] | – | – | – | – | – | – | – | 96 | 84 | 72 | 67 | 98 | 96 | 46 | – | – | – | – | –
3 | Cc1c(S(=O)(=O)NCC2CCN(CCCc3noc4cc(F)ccc34)C2)sc2ccc(Cl)cc12 (stereo not shown) [Compound 238, 5-Chloro-N-[[1-[3-(6-fluoro-1,2-benzoxazol-3-yl)propyl]pyrrolidin-3-yl]methyl]-3-methyl-benzothiophene-2-sulphonamide] | 98 | 95 | 48 | – | 96 | 94 | 65 | – | – | – | – | – | – | – | 3.9 | 99 | 3 | 17 | –
4 | O=S(=O)(NC1CCN(CCCc2noc3cc(F)ccc23)C1)c1csc2ccccc12 (stereo not shown) [Compound 26, N-[1-[3-(6-Fluoro-1,2-benzoxazol-3-yl)propyl]pyrrolidin-3-yl]-benzothiophene-3-sulphonamide] | 98 | 81 | 101 | 51 | 98 | 76 | 44 | – | – | – | – | – | – | – | – | – | – | – | –
5 | O=S(=O)(N[C@H]1CCN(CCCc2noc3cc(F)ccc23)C1)c1ccc2ccccc2c1 [Compound 207, N-[(3S)-1-[3-(6-Fluoro-1,2-benzoxazol-3-yl)propyl]pyrrolidin-3-yl]-naphthalene-2-sulphonamide] | 101 | 85 | 85 | – | 101 | 90 | 65 | – | – | – | – | – | – | – | 3.8 | 100 | 0.5 | 7.7 | –
6 | Cc1c(S(=O)(=O)NC2CCN(CCCc3noc4cc(F)ccc34)C2)sc2ccc(Cl)cc12 (stereo not shown) [Compound 29, 5-Chloro-N-[1-[3-(6-fluoro-1,2-benzoxazol-3-yl)propyl]pyrrolidin-3-yl]-3-methyl-benzothiophene-2-sulphonamide] | 97 | 85 | 16 | 28 | 92 | 84 | 59 | – | – | – | – | – | – | – | – | – | – | – | –
7 | O=S(=O)(NC1CCN(CCCc2noc3cc(F)ccc23)C1)c1cc2ccccc2o1 (stereo not shown) [Compound 216, N-[1-[3-(6-Fluoro-1,2-benzoxazol-3-yl)propyl]pyrrolidin-3-yl]benzofuran-2-sulphonamide] | 98 | 85 | 87 | 62 | 97 | 80 | 61 | – | – | – | – | – | – | – | – | – | – | – | –
8 | O=S(=O)(NC1CCN(CCCc2c[nH]c3ccc(F)cc23)C1)c1cccc2ccccc12 (stereo not shown) [Compound 79, N-[1-[3-(5-Fluoro-1H-indol-3-yl)propyl]pyrrolidin-3-yl]naphthalene-1-sulphonamide] | 95 | 97 | 92 | – | 86 | 96 | 72 | – | – | – | – | – | – | – | – | 99 | – | – | –
9 | Cc1ccc2sc(S(=O)(=O)N[C@H]3CCN(CCCc4noc5cc(F)ccc45)C3)cc2c1 [Compound 229, N-[(3S)-1-[3-(6-Fluoro-1,2-benzoxazol-3-yl)propyl]pyrrolidin-3-yl]-5-methylbenzothiophene-2-sulphonamide] | 101 | 93 | 86 | – | 98 | 98 | 75 | – | – | – | – | – | – | – | 2.4 | – | 0.6 | 43 | –
10 | CC1(C)Cc2cccc(OCCN3CCC(NS(=O)(=O)c4cccc(O)c4)CC3)c2O1 [Compound 109, N-[1-[2-[(2,2-Dimethyl-3H-benzofuran-7-yl)oxy]ethyl]-4-piperidine]-3-hydroxy-benzenesulphonamide] | – | – | – | – | – | – | – | 92 | 86 | 69 | – | 67 | 98 | 65 | – | – | – | – | 95
11 | Cc1ccc2sc(S(=O)(=O)NC3CCN(CCCc4noc5cc(F)ccc45)C3)cc2c1 (stereo not shown) [Compound 226, N-[1-[3-(6-Fluoro-1,2-benzoxazol-3-yl)propyl]pyrrolidin-3-yl]-5-methylbenzothiophene-2-sulphonamide] | 99 | 95 | 69 | 89 | 92 | 86 | 73 | – | – | – | – | – | – | – | – | – | – | – | –
